Source: patent US4416826A, “Peresters and use thereof” (priority 1980, dated 1983)

Key:
[1] = Stern-Volmer triplet quenching with naphthalene; assay type: physicochemical; conditions: CCl4
From the text: All the peresters give linear Stern-Volmer plots when naphthalene is used as triplet quencher.

[2] = Relative quantum yield of initiator decomposition in presence of monomer (IR at 1770 cm^-1); assay type: physicochemical; conditions: for relative quantum yield φrel of decomposition: benzene, initiator 2 × 10^-2 M
Method: Commercial styrene is washed three times with ice cold 2% NaOH solution followed by washing (four times) with distilled water. The styrene is dried over anhydrous CaCl2 and distilled under vacuum before use. The middle fraction of the distillate is used for polymerization. Solvents are purified by conventional means and distilled under N2 atmosphere.
The irradiations are carried out in degassed (three cycles of freeze-thaw under high vacuum) sealed 15-mm Pyrex tubes. The tubes are placed in a merry-go-round with a filtered UV source of 366 nm at the center and the yield of polymer is measured (below 10% conversion) gravimetrically. In all of the cases, tubes of the same size and same volume of solution are used. Number-average molecular weights of the purified polymers are determined by viscometry in a benzene solution. After the polymerization, an aliquot of 0.5 ml from each reaction tube is placed in 2-ml volumetric flasks. The solvent and excess monomer are evaporated under high vacuum for several hours. The remaining flask contents are dissolved in 0.5 ml of benzene or chloroform and the polymer is precipitated by adding 0.5 ml of n-hexane. The solution then is centrifuged and the IR of the centrifugate is measured to determine undecomposed perester. All of the above procedures are carried out as far as possible in the dark. The light intensity is measured by benzophenone-benzhydrol actinometry and observed to be Io =6.56×10^17 quanta/min on the average. The temperature of the tubes is maintained at 30° C.
The decomposition of the initiator employed is followed by IR at 1770 cm^-1 (caused by the carbonyl adjacent to the peroxy group) against an appropriate solvent blank. The initiators employed are .rho.-benzoylperoxybenzoic acid tert-butylester (Ia) and prior art benzophenone peroxide. In addition, the above procedure is repeated except that methyl methacrylate is employed in place of styrene. Table IX below illustrates the relative quantum yield for the decomposition of the initiators in the recited amounts of monomers, assuming that the quantum yield for the decomposition of the perester and peroxide in the absence of any monomer is one.

[3] = Photodecomposition kinetics and quantum yields at 366 nm (benzophenone-benzhydrol actinometry); assay type: physicochemical
Method: Kinetic studies are carried out in degassed, sealed tubes by irradiating them with 366 nm light obtained from a Hanovia medium-pressure mercury lamp by combining the Corning Filters 0-52 and 7-60. The decompositions of the […] followed by the carbonyl IR absorption adjacent to the peroxide group (O=COO--) (1770 cm^-1). Benzophenone-benzhydrol redox actinometry are used throughout the study. In particular, a solution of […] (2 mL) in the appropriate solvent is placed in Pyrex tubes (12-mm diameter), degassed, and sealed under vacuum. Three cycles of freeze-thaw removes dissolved oxygen. The tubes are placed in a merry-go-round around a water-cooled light source, removed at different predetermined intervals, and kept frozen in liquid nitrogen in the dark until analysis is done. The estimation of […] done by quantitative IR, monitoring the carbonyl peak at 1770 cm^-1. […] Absorbance is measured with a 0.1 mm NaCl cell against solvent reference. With every run, two tubes containing actinometric solutions (benzophenone (0.1 M) and benzhydrol (0.05 M) in benzene are irradiated.

[4] = Polymerization of methyl methacrylate; conditions: initiator 5 × 10^-2 M, [MMA] = 3.1 M, 25° C., benzene
Method: Commercial methyl methacrylate monomer is washed three times with 2% NaOH solution to remove stabilizer. It is then washed with distilled water three times, dried with molecular sieves, and distilled under vacuum before use. Polymerization solutions are prepared in cylindrical tubes which are degassed and sealed. The amount of polymer formed is determined by precipitating the polymer with an excess of methanol, washing with methanol, and filtering through fine sintered crucibles (previously weighed) followed by drying in a vacuum oven. The irradiation condition is the same as that in the decomposition rate example hereinabove.

quenching constant kq τ [1]: 7.5
relative quantum yield φrel of decomposition ([2]; styrene 1.09 M): 0.25
relative quantum yield φrel of decomposition ([2]; styrene 2.19 M): 0.20
relative quantum yield φrel of decomposition ([2]; styrene 3.28 M): 0.14
relative quantum yield φrel of decomposition ([2]; styrene 4.37 M): 0.12
relative quantum yield φrel of decomposition ([2]; styrene 8.73 M): very low
photodecomposition behaviour, in words ([3]; 366 nm radiation, room temperature): decomposes smoothly at room temperature
apparent first-order photodecomposition rate constant kd × 10^4 ([3]; C6 H6, 25° C., 366 nm, I = 6.56 × 10^17 quanta/min, 5.03-6.06 × 10^-2 M, given as kd × 10^4): 1.84 s^-1
quantum yield of decomposition (φ of dec) ([3]; C6 H6, 366 nm, perester 5.03-6.06 × 10^-2 M): 0.94
quantum yield of decomposition (φ of dec) ([3]; CCl4, 3.56 × 10^-2 M, TBP 3.76 × 10^-2 M): 0.74
quantum yield of decomposition (φ of dec) ([3]; CCl4, 3.56 × 10^-2 M, no TBP): 0.90
quantum yield of decomposition (φ of dec) ([3]; CCl4, 4.78 × 10^-2 M, TBP 5.01 × 10^-2 M): 0.79
quantum yield of decomposition (φ of dec) ([3]; CCl4, 7.16 × 10^-2 M, no TBP): 1.05
quantum yield of decomposition (φ of dec) ([3]; methanol, TBP 5.08 × 10^-2 M, Ia 5.38, Ib 6.15 × 10^-2 M): 0.64
quantum yield of decomposition (φ of dec) ([3]; methanol, no TBP, Ia 5.38, Ib 6.15, Ic 5.10 × 10^-2 M): 2.77
SMILES: CC(C)(C)OOC(=O)c1ccc(C(=O)c2ccccc2)cc1 [Ia, t-Butyl-4-Benzoylperbenzoate]
effect of styrene on quantum yield of decomposition, in words [2]: Styrene drastically reduces the quantum yield of decomposition
Rate of Polymerization (Rp) of MMA, Rp × 10^5 [4]: 8.33 mL^-1 s^-1
